Experimental findings from US20080139484A1, “1(Beta-D-Glycopyranosyl)-3-Substituted Nitrogenous Heterocyclic Compound, Medicinal Composition Containing the Same, and Medicinal Use Thereof” (KISSEI PHARMACEUTICAL CO., LTD., priority 2004, published 2008) are described below.

Assay [1] addresses T1, human SGLT1 (Homo sapiens, UniProt P13866).
T1 construct: expressed in transfected cells; host or cells: COS-7 cells, transient lipofection (Lipofectamine-2000) of pcDNA3.1(-) vector
T1 sequence (P13866 1-664): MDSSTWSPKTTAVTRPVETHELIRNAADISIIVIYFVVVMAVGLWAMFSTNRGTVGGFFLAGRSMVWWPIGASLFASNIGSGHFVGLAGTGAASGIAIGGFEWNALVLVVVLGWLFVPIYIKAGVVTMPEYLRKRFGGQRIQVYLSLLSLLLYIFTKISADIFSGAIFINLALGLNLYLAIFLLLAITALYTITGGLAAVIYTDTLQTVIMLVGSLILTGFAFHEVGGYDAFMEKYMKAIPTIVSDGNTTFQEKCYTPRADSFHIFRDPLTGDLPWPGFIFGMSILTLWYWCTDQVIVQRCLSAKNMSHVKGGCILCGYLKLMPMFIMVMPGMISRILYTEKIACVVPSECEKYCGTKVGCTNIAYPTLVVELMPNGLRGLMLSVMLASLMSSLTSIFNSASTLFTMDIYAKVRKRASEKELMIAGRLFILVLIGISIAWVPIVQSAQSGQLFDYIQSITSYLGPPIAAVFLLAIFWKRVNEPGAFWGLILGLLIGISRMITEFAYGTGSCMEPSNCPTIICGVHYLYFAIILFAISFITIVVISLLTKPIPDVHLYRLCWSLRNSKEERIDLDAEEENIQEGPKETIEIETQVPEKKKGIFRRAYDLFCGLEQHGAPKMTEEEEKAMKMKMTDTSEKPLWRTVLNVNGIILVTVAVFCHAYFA
Nature of the assay: Inhibition of methyl-α-D-glucopyranoside (α-MG) uptake in COS-7 cells expressing human SGLT1. The assay is classed as cell-based. To be noted: COS-7 cells expressing human SGLT1, 1 mM α-MG, 1 hour incubation at 37° C. As for the experimental part:
(§1) Assay for Inhibitory Effects on Human SGLT Activity
The cDNA library was prepared for PCR amplification by reverse transcription from total RNA deprived from human small intestine (Ori gene) using oligo-dT as a primer. Using this cDNA library as a template, the DNA fragment coding 1 to 2005 bp of human SGLT1 (ACCESSION: M24847), which was reported by Hediger et al., was amplified by PCR method and inserted into the multi-cloning site of pcDNA3.1(−) (Invitrogen). The DNA sequence inserted was perfectly matched to the previously reported sequence.
(§2) The vector expressing human SGLT1 or SGLT2 was transfected into COS-7 cells by lipofection method (Lipofectamine-2000: Invitrogen). First, COS-7 cells were plated 5×10^4 cells/100 μL/well on 96-wells plate and incubated at 37° C. for 2 hours. In addition, per 50 μL medium, 0.3 μg of human SGLT1 or SGLT2 expression vector was mixed with 0.5 μL of Lipofectamine-2000 and the complex solution was prepared. Fifty μL/well of this complex solution was added to COS-7 cells, previously described, and the plate was mixed gently and was used for uptake assay after 2 days culture.
A mixture of non-labeled (Sigma) and ^14C-labeled α-MG (Amersham Pharmacia Biotech) was added to the uptake buffer (pH 7.4; containing 140 mM sodium chloride, 2 mM potassium chloride, 1 mM calcium chloride, 1 mM magnesium chloride, 10 mM 2-[4-(2-hydroxyethyl)-1-piperazinyl]ethane sulfonic acid and 5 mM tris(hydroxymethyl)aminomethane) at the final concentration of 1 mM. A test compound was dissolved in dimethyl sulfoxide, and then appropriately diluted with distilled water. The test compound solution was added to the uptake buffer containing 1 mM α-MG, and designated as a measurement buffer. For the control group, the measurement buffer without any test compound was prepared. For measuring the basal uptake, a basal uptake measurement buffer, which contains 140 mM chorine chloride instead of sodium chloride, was prepared. After removing the culture medium of cells expressing human SGLT1 or human SGLT2, 180 μL of the pre-treatment buffer (the basal uptake buffer without α-MG) was added to each well and incubated at 37° C. for 10 minutes. After repeating the same treatment, the pre-treatment buffer was removed, and then 75 μL per well of the measurement buffer or the basal uptake buffer was added and the cells were incubated at 37° C. […] Radioactivity was measured by means of micro-scintillation counter TopCount (Packard). One hundred % was set to the difference between the uptake in the control group and the basal uptake, and the uptake of methyl α-D-glucopyranoside at each drug concentration was calculated. […]

The target in assay [2] is T2, human SGLT2 (Homo sapiens, UniProt P31639).
T2 construct: expressed in transfected cells; host or cells: COS-7 cells, transient lipofection (Lipofectamine-2000) of pcDNA3.1(-) vector
T2 sequence (P31639 1-672): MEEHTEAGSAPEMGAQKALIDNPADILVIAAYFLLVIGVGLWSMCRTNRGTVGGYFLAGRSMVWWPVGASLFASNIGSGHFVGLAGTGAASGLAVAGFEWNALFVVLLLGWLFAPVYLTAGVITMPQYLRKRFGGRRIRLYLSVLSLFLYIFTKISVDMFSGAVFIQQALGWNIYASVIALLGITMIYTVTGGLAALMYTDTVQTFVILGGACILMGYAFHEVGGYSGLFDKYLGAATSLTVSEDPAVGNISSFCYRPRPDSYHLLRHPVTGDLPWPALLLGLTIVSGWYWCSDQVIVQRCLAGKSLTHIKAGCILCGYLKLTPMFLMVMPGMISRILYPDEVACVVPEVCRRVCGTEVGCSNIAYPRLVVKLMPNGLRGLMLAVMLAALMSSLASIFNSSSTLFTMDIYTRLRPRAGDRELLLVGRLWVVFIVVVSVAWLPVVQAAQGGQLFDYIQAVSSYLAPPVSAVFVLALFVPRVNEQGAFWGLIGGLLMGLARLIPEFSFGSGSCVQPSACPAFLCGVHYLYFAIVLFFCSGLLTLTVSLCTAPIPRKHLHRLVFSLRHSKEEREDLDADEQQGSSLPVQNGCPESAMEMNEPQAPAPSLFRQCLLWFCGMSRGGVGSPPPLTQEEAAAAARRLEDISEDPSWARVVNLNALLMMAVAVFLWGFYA
Nature of the assay: Inhibition of methyl-α-D-glucopyranoside (α-MG) uptake in COS-7 cells expressing human SGLT2. The assay is classed as cell-based. The conditions noted are these: COS-7 cells expressing human SGLT2, 1 mM α-MG, 1 hour incubation at 37° C. As for the experimental part:
as §1
The cDNA library was prepared for PCR amplification by reverse transcription from total RNA deprived from human kidney (Ori gene) using oligo-dT as a primer. Using this cDNA library as a template, the DNA fragment coding 2 to 2039 bp of human SGLT2 (ACCESSION: M95549, M95299), which was reported by R. G. Wells et al., was amplified by PCR method and inserted into the multi-cloning site of pcDNA3.1(−) (Invitrogen). The DNA sequence inserted was perfectly matched to the previously reported sequence.
as §2
A mixture of non-labeled (Sigma) and ^14C-labeled α-MG (Amersham Pharmacia Biotech) was added to the uptake buffer (pH 7.4; containing 140 mM sodium chloride, 2 mM potassium chloride, 1 mM calcium chloride, 1 mM magnesium chloride, 10 mM 2-[4-(2-hydroxyethyl)-1-piperazinyl]ethane sulfonic acid and 5 mM tris(hydroxymethyl)aminomethane) at the final concentration of 1 mM. A test compound was dissolved in dimethyl sulfoxide, and then appropriately diluted with distilled water. The test compound solution was added to the uptake buffer containing 1 mM α-MG, and designated as a measurement buffer. For the control group, the measurement buffer without any test compound was prepared. For measuring the basal uptake, a basal uptake measurement buffer, which contains 140 mM chorine chloride instead of sodium chloride, was prepared. After removing the culture medium of cells expressing human SGLT1 or human SGLT2, 180 μL of the pre-treatment buffer (the basal uptake buffer without α-MG) was added to each well and incubated at 37° C. for 10 minutes. After repeating the same treatment, the pre-treatment buffer was removed, and then 75 μL per well of the measurement buffer or the basal uptake buffer was added and the cells were incubated at 37° C. After 1 hour incubation, the measurement buffer was removed and the cells were washed twice with 180 μL per well of the washing buffer (the basal uptake buffer containing 10 mM non-labeled α-MG). The cells were solubilized by 75 μL per well of 0.2 mol/L sodium hydroxide, and then the cell lysates were transferred into PicoPlates (Packard). One hundred fifty μL of Microscint-40 (Packard) was added to the wells and mixed. Radioactivity was measured by means of micro-scintillation counter TopCount (Packard). One hundred % was set to the difference between the uptake in the control group and the basal uptake, and the uptake of methyl α-D-glucopyranoside at each drug concentration was calculated. The drug concentration, at which 50% uptake of methyl α-D-glucopyranoside was inhibited (IC50 value), was calculated using logit plot. The blanks in the Table are untested.

Assay [3] is described as follows: Test Example 2: effect on urinary glucose excretion. The assay is classed as in vivo. The conditions noted are these: overnight fasted male SD rats, 7 weeks of age, 1 mg/kg intravenously (3 mL/kg), urine collected for 24 hours. The procedure:
As experimental animals, overnight fasted SD rats (CHARLES RIVER LABORATORIES JAPAN. Inc., Crj:CD(SD(IGS), male, 7 weeks of age, 200-230 g) were used.
Example 10 compound of 2.12 mg was dissolved by adding 636 μL of ethanol and 2544 μL of polyethylene glycol 400. And then the solution was mixed with 3180 μL of saline and sonicated. Example 12 compound of 2.18 mg was dissolved by adding 654 μL of ethanol and 2616 μL of polyethylene glycol 400. And then the solution was mixed with 3270 μL of saline and sonicated. These test compound solutions of 0.33 mg/mL were used for administration.
The body weights of rats were measured and the solution of the test compound was intravenously injected to the tail vein of rats at the dose of 3 mL/kg (1 mg/kg as test compound). Collection of urine was performed for 24 hours after the administration. […]
Frozen samples were thawed and mixed well. According to need, a part of samples was diluted with distilled water and the glucose concentration of these samples was measured with a kit for laboratory test: Glucose CII-Test WAKO (Wako Pure Chemical Industries, Ltd.).
The amounts of urinary glucose excretion per 200 g of body weight were calculated from glucose concentration of urinary samples, dilution factor, urinary volume and body weight using the following equation. […]

Assay [4] in a line: Test Example 4: inhibitory effects on blood glucose level increase, liquid meal tolerance test in diabetic rats. Type of assay: in vivo. To be noted: streptozotocin diabetic rats, 2 mg/kg orally, liquid meal load, mean ± S.E. The procedure: Rats, aged 8 weeks old, were injected streptozotocin (45 mg/kg) intravenously from tail vain. After 1 week, rats were fasted overnight and then glucose tolerance test (2 g/kg) was performed.
After overnight fasted, the diabetic rats were or ally administered a test compound (2 mg/kg), which was dissolved in distilled water, in the drug-treating group, or distilled water alone in a control group. Immediately after the compound administration, 3 mL/body of liquid meal (No. 038, Control diet, assorted with dextrin and maltose; Oriental Yeast Co., Ltd., prepared for 323 g/L) was loaded or ally. The blood was collected from tail artery immediately before and after administration with the time course, and treated with heparin immediately. The blood was centrifuged, and the plasma was collected and quantified the plasma glucose concentration by glucose oxidase method. The values in the Table are presented as the mean ±S.E.

Assay [5] is described as follows: Test Example 3: effect on urinary glucose excretion. The conditions noted are these: overnight fasted male SD rats, 9 weeks of age, 1 mg/kg intravenously (2 mL/kg), urine collected for 24 hours. The assay is classed as in vivo. The procedure:
As experimental animals, overnight fasted SD rats (CHARLES RIVER LABORATORIES JAPAN. Inc., Crj:CD(SD)IGS, male, 9 weeks of age, 300-330 g) were used.
Example 346 compound of 2.90 mg was dissolved by adding 29.0 μL of dimethyl sulfoxide and 2320 μL of polyethylene glycol 400. And then, the solution was mixed with 3450 μL of saline. This 0.5 mg/mL solution was used for administration.
Rats were fasted for overnight. The body weights of rats were measured and urinary glucose excretions were calculated as with the Test Example 2 except for intravenously injection to the tail veins of rats at the dose of 2 mL/kg (1 mg/kg as test compound).

Take `COc1ccc(Cc2cn([C@@H]3O[C@H](CO)[C@@H](O)[C@H](O)[C@H]3O)c3cccc(C)c23)cc1` [Example 8]: the IC50 worked out at 10 nM in assay [1] and 0.6 nM in assay [2].

As for `CCc1ccc(Cc2cn([C@@H]3O[C@H](CO)[C@@H](O)[C@H](O)[C@H]3O)c3ccccc23)cc1` [Example 10], the IC50 in assay [2] stood at 0.5 nM. The “Amount of urinary excretion of glucose in 24 hours” value (shortened to “Amount”) in assay [3] is 11.2 mg/200 g body weight.

Turning to `COc1ccc(Cc2cn([C@@H]3O[C@H](CO)[C@@H](O)[C@H](O)[C@H]3O)c3cc(C)ccc23)cc1` [Example 12, 1-(β-D-glucopyranosyl)-3-(4-methoxybenzyl)-6-methyl-1H-indole], the IC50 in assay [1] worked out at 3200 nM; in assay [2] it was 0.9 nM. In assay [3], the “Amount” value was found to be 111.8 mg/200 g body weight.

As to `COc1ccc(Cc2cn([C@@H]3O[C@H](CO)[C@@H](O)[C@H](O)[C@H]3O)c3ccccc23)c(F)c1` [Example 15], the IC50 in assay [2] was found to be 11 nM.

In turn, `Cc1cccc2c1c(Cc1ccc(OCCCNCCC(N)=O)cc1)cn2[C@@H]1O[C@H](CO)[C@@H](O)[C@H](O)[C@H]1O` [Example 318, 3-[(4-{3-[2-(Carbamoyl)ethylamino]propoxy}phenyl)methyl]-1-(β-D-glucopyranosyl)-4-methyl-1H-indole] displayed an IC50 in assay [1] of 122 nM.

With `CCOC(=O)[C@H](CO)NC(=O)CCCc1ccc(Cc2cn([C@@H]3O[C@H](CO)[C@@H](O)[C@H](O)[C@H]3O)c3cccc(C)c23)cc1` [Example 320], the “Plasma glucose concentration 0.5 h” value in assay [4] (0.5 hour after administration) was 230 ± 14 mg/dL. In addition, the “Plasma glucose concentration 1 h” value in assay [4] (1 hour after administration) worked out at 312 ± 15 mg/dL. Further, the “Plasma glucose concentration 0 h” value in assay [4] (pretreatment (0 h)) was determined as 133 ± 10 mg/dL.

`Cc1cccc2c1c(Cc1ccc(CCCC(=O)NC(C)(C)C(=O)N3CCNCC3)cc1)cn2[C@@H]1O[C@H](CO)[C@@H](O)[C@H](O)[C@H]1O` [Example 329, 1-(β-D-Glucopyranosyl)-3-(4-[3-{1-(piperazin-1-yl-carbonyl)-1-(methyl)ethylcarbamoyl}propyl]phenyl)methyl-4-methyl-1H-indole] showed an IC50 in assay [1] of 41 nM.

`COc1ccc(Sc2cn([C@@H]3O[C@H](CO)[C@@H](O)[C@H](O)[C@H]3O)c3cc(C)ccc23)cc1` [Example 346, 1-(β-D-Glucopyranosyl)-3-{(4-methoxyphenyl)sulfany}-6-methyl-1H-indole] came in with an IC50 in assay [2] of 0.4 nM. In assay [5], the “Amount” value stood at 33.12 mg/200 g body weight.

A word on the IC50: it is the concentration that gives 50% inhibition. A higher IC50 goes with weaker potency in that assay.
